# Values quoted from earlier work, collected in patent US20060275243A1, “Cosmetic or therapeutic combination preparation with theanine” (ROVI GmbH & Co. Kosmetische Rohstoffe KG, priority 2005, published 2006).
# Conditions: investigations referred to in the description
smiles,measurement,value
CCNC(=O)CC[C@H](N)C(=O)O [theanine],effect on the cramp-triggering effect of caffeine,can inhibit the cramp-triggering effect of caffeine
